Experiments:
Experiment in all cases: Inhibitory effect on growth of human cancer cells (in vitro), WST-8
Format in all cases: cell-based
[1] = system: human colorectal cancer HCT116 cells; details: Homo sapiens, HCT-116, 96 h, 96 hours culture
Description: (§1) Each pyrrole compound of the present invention was studied for its effects on the growth of human non-small cell lung cancer A549 cells and human colorectal cancer HT-29 cells and HCT116 cells. The cells of each line were suspended in an RPMI1640 medium supplemented with 10% fetal bovine serum and inoculated at a cell density of 1000 cells/50 μL/well to a 96-well plate. After overnight culture, each compound diluted with a medium was added thereto at a concentration of 50 μL/well, and the cells were further cultured for 96 hours. After the completion of culture, WST-8 (Seikagaku Corp.) was added thereto at a concentration of 10 μL/well, and the cells were cultured at 37° C. for approximately 1 hour under 5% CO2 conditions, followed by measurement of absorbance at 450 nm.

[2] = system: human colorectal cancer HT-29 cells; details: Homo sapiens, HT-29, 96 h, 96 hours culture, read-out: IC50 (nM) HT29
Description: as §1

[3] = system: human non-small cell lung cancer A549 cells; details: Homo sapiens, A549, 96 h, 96 hours culture
Description: as §1

SMILES	IC50 [1]	IC50 [2]	IC50 [3]
CCc1nnc(-c2c(C)c(C(=O)c3cccc(Br)c3)c(C)n2CCO)o1 [Compound 236, (3-bromophenyl) (1-(2-hydroxyethyl)-2,4-dimethyl-5-(5-ethyl-1,3,4-oxadiazol-2-yl)-1H-pyrrol-3-yl)methanone]	231 nM	168 nM	469 nM
CCc1nnc(-c2c(C)c(C(=O)c3cccc(Br)c3)c(C)n2C(=O)c2ccccc2)o1 [Compound 237, (1-benzoyl-5-(5-ethyl-1,3,4-oxadiazol-2-yl)-2,4-dimethyl-1H-pyrrol-3-yl) (3-bromophenyl)methanone]	0.6 nM	0.3 nM	1.9 nM
Cc1[nH]c(-c2nnc(C3CC3)o2)c(C)c1C(=O)c1cc(Br)ccc1O [Compound 241, (5-bromo-2-hydroxyphenyl)(5-(5-cyclopropyl-1,3,4-oxadiazol-2-yl)-2,4-dimethyl-1H-pyrrol-3-yl)methanone]	1.4 nM	2.6 nM	2.1 nM
CCc1nnc(-c2[nH]c(C)c(C(=O)c3ccc(OCCN)c(Br)c3)c2C)o1 [Compound 251, (4-(2-aminoethoxy)-3-bromophenyl)(5-(5-ethyl-1,3,4-oxadiazol-2-yl)-2,4-dimethyl-1H-pyrrol-3-yl)methanone]	55.3 nM	102 nM	191 nM
Cc1[nH]c(-c2nnc(C3CC3)o2)c(C)c1C(=O)c1cccc(OCCN)c1 [Compound 253, (3-(2-aminoethoxy)phenyl)(5-(5-cyclopropyl-1,3,4-oxadiazol-2-yl)-2,4-dimethyl-1H-pyrrol-3-yl)methanone]	45.2 nM	146 nM	351 nM
Cc1[nH]c(-c2nnc(C3CC3)o2)c(C)c1C(=O)c1ccc(O)c(Br)c1 [Compound 254, (3-bromo-4-hydroxyphenyl)(5-(5-cyclopropyl-1,3,4-oxadiazol-2-yl)-2,4-dimethyl-1H-pyrrol-3-yl)methanone]	44.5 nM	33.2 nM	55.1 nM
Cc1[nH]c(-c2nnc(C3CC3)o2)c(C)c1C(=O)c1ccc(OCCN)c(Br)c1 [Compound 256, (4-(2-aminoethoxy)-3-bromophenyl)(5-(5-cyclopropyl-1,3,4-oxadiazol-2-yl)-2,4-dimethyl-1H-pyrrol-3-yl)methanone]	43.2 nM	36.2 nM	95.9 nM
Cc1[nH]c(-c2nnc(C3CC3)o2)c(C)c1C(=O)c1ccc(OCCN(C)C)c(Br)c1 [Compound 257, (3-bromo-4-(2-(dimethylamino)ethoxy)phenyl) (5-(5-cyclopropyl-1,3,4-oxadiazol-2-yl)-2,4-dimethyl-1H-pyrrol-3-yl)methanone]	865 nM	384 nM	865 nM
COc1ccc(Br)cc1C(=O)c1c(C=O)[nH]c(-c2nnc(C3CC3)o2)c1C [Compound 258, 3-(5-bromo-2-methoxybenzoyl)-5-(5-cyclopropyl-1,3,4-oxadiazol-2-yl)-4-methyl-1H-pyrrole-2-carboaldehyde]	45.4 nM	30.9 nM	50.5 nM
COc1ccc(Br)cc1C(=O)c1c(CO)[nH]c(-c2nnc(C3CC3)o2)c1C [Compound 259, (5-bromo-2-methoxyphenyl)(5-(5-cyclopropyl-1,3,4-oxadiazol-2-yl)-2-(hydroxymethyl)-4-methyl-1H-pyrrol-3-yl)methanone]	39.2 nM	37.2 nM	69.5 nM
C=Cc1[nH]c(-c2nnc(C3CC3)o2)c(C)c1C(=O)c1cccc(Br)c1 [Compound 260, (3-bromophenyl) (5-(5-cyclopropyl-1,3,4-oxadiazol-2-yl)-4-methyl-2-vinyl-1H-pyrrol-3-yl)methanone]	0.3 nM	0.3 nM	0.4 nM
Cc1c(-c2nnc(C3CC3)o2)[nH]c(C=O)c1C(=O)c1cccc(Br)c1 [Compound 261, 3-(3-bromobenzoyl)-5-(5-cyclopropyl-1,3,4-oxadiazol-2-yl)-4-methyl-1H-pyrrole-2-carboaldehyde]	88.9 nM	9.4 nM	12.9 nM
COc1ccc(C(=O)c2c(C3SCCCS3)[nH]c(-c3nnc(C4CC4)o3)c2C)cc1Br [Compound 262, (3-bromo-4-methoxyphenyl)(5-(5-cyclopropyl-1,3,4-oxadiazol-2-yl)-2-(1,3-dithian-2-yl)-4-methyl-1H-pyrrol-3-yl)methanone]	902 nM	845 nM	905 nM
Cc1c(-c2nnc(C3CC3)o2)[nH]c(CO)c1C(=O)c1cccc(Br)c1 [Compound 264, (3-bromophenyl)(5-(5-cyclopropyl-1,3,4-oxadiazol-2-yl)-2-(hydroxymethyl)-4-methyl-1H-pyrrol-3-yl)methanone]	1.8 nM	1.8 nM	8.2 nM
Cc1c(-c2nnc(C3CC3)o2)[nH]c(C(F)F)c1C(=O)c1cccc(Br)c1 [Compound 265, (3-bromophenyl)(5-(5-cyclopropyl-1,3,4-oxadiazol-2-yl)-2-(difluoromethyl)-4-methyl-1H-pyrrol-3-yl)methanone]	158 nM	37.1 nM	46 nM
COc1ccc(C(=O)c2c(CN3CCCCC3)[nH]c(-c3nnc(C4CC4)o3)c2C)cc1Br [Compound 270, (3-bromo-4-methoxyphenyl)(5-(5-cyclopropyl-1,3,4-oxadiazol-2-yl)-4-methyl-2-(piperidin-1-ylmethyl)-1H-pyrrol-3-yl)methanone]	819 nM	725 nM	859 nM
Cc1noc(-c2[nH]c(C)c(C(=O)c3cccc(Br)c3)c2C)n1 [Compound 271, (3-bromophenyl) (2,4-dimethyl-5-(3-methyl-1,2,4-oxadiazol-5-yl)-1H-pyrrol-3-yl)methanone]	50.4 nM	44.1 nM	92.9 nM
CCc1cnc(-c2[nH]c(C)c(C(=O)c3cccc(Br)c3)c2C)o1 [Compound 272, (3-bromophenyl) (5-(5-ethyloxazol-2-yl)-2,4-dimethyl-1H-pyrrol-3-yl)methanone]	48.4 nM	42 nM	66.6 nM
Cc1c(-c2nnn(CCN)n2)[nH]c(CO)c1C(=O)c1cccc(Br)c1 [Compound 280, (5-(2-(2-aminoethyl)-2H-tetrazol-5-yl)-2-(hydroxymethyl)-4-methyl-1H-pyrrol-3-yl) (3-bromophenyl)methanone]	250 nM	194 nM	250 nM
CNC(=O)c1[nH]c(-c2nnn(CCN)n2)c(C)c1C(=O)c1cccc(Br)c1 [Compound 282, 5-(2-(2-aminoethyl)-2H-tetrazol-5-yl)-3-(3-bromobenzoyl)-N,4-dimethyl-1H-pyrrole-2-carboxamide]	754 nM	315 nM	525 nM
Cc1c(-c2nnn(CCO)n2)[nH]c(C(C)(C)O)c1C(=O)c1cccc(Br)c1 [Compound 285, (3-bromophenyl)(5-(2-(2-hydroxyethyl)-2H-tetrazol-5-yl)-2-(2-hydroxypropan-2-yl)-4-methyl-1H-pyrrol-3-yl)methanone]	246 nM	598 nM	595 nM
Cc1[nH]c(-c2nnn(CCO)n2)c(Br)c1C(=O)c1cccc(Br)c1 [Compound 288, (4-bromo-5-(2-(2-hydroxyethyl)-2H-tetrazol-5-yl)-2-methyl-1H-pyrrol-3-yl)(3-bromophenyl)methanone]	7.1 nM	6.7 nM	8.2 nM
